Each structure is given as a SMILES string. Like-named read-outs stand apart in the source and are kept apart here. Where only a bound is given, the exact number is not on record here.

Broadly, the half-life is how long it takes for the measured level to halve.

The subject of data set [1] is dietary restricted (DR) rats. In words: Induction of hypothermia by intermittent CHA and 8-SPT in ad libitum fed and dietary restricted rats. It counts as in vivo, rat. Here is the method:
First, shivering is alleviated through stimulation of central A1AR. Second, the Tb minimum and rate of cooling following stimulation of A1AR in the CNS can be controlled through manipulation of ambient temperature without external or internal cooling. These principles were used to develop methods for inducing hypothermia in dietary restricted (DR) rats (FIG. 3B). In FIG. 3, the magnitude and rate of cooling was controlled by adjusting ambient temperature (i.e., 16° C.) and regulating sensitivity to CHA through DR (every other day feeding, see FIG. 3B). Peripheral side effects were minimized by co-administration of 8-SPT (2.5 mg/kg i.p.) 15 min prior to CHA (0.5 mg/kg, i.p.). […].

The conditions of data set [2]: stated as approximated by the 4 hr injection interval; cited from earlier work.
Data set [3] concerns Male Sprague-Dawley rats. Nature of the data set: Sustained hypothermia in conscious rats, drug delivery via sequential i.p. injections. It counts as in vivo.
The subject of data set [4] is Male Sprague-Dawley rats. In words: Continuous CHA delivery through iPRECIO pumps at Ta 16° C. or 25° C., with 8-SPT injection. Format: in vivo, rat. The settings on record: for mean minimum Tb: continuous CHA via SQ minipump, equivalent to 1 mg/kg every 4 hr, 24 hr. Here is the method: To determine if the effects of CHA on heart rate were due to direct effects of CHA on the heart or to the effects of tissue temperature, programmable minipumps were employed to deliver CHA continuously for 24 hr at an ambient temperature of 25° C. and 16° C. […] For these experiments a separate group of rats was instrumented with programmable iPRECIO® pumps (DSI, St. Paul, Minn.). CHA was dissolved in 25% (w/v) hydroxypropyl-β-cyclodextrin (CD) in sterile water and 8-SPT was dissolved in 0.9% saline. Pumps delivered the same mass of CHA as in the first experiment (6 mg/kg over a 24 hr period), however, in this case CHA was delivered at a constant rate of 30 μL/hr. Heart rate (HR) and hemoglobin saturation (sO2) was monitored using a pulse oximeter every 10 min for 1 hr following a single injection of 8-SPT (25 mg/kg, i.p.) or vehicle as indicated. As before, animals in both treatment and control groups were moved to an ambient temperature (Ta) of 16° C. or 25° C. the day before the experiment and remained at this Ta until return to a Ta of 20° C., 4 hr after the end of drug delivery. Drug and vehicle treatments were administered to all animals using a balanced cross-over design. At least 1 week separated CHA and vehicle (CD) treatment and 1 hr separated 8-SPT and vehicle (saline) injections. A pulse oximeter (Vet/Ox […], Model 72042A3 Sensor Devices Inc., Lancaster, Pa.) was used to monitor heart rate (HR) and sO2. Pulse oximetry was acquired via a sensor on the paw.

Data set [5] relates to arctic ground squirrel (AGS). The note with it: CHA i.p. or into the lateral ventricle (icv), cited from earlier work.
Data set [6] concerns arctic ground squirrel (AGS). Nature of the data set: CHA-induced torpor and hypothermic response in arctic ground squirrel. It counts as in vivo. The note with it: CHA 0.1 mg/kg i.p.; trough vs peak in euthermic Tb,sc; p<0.05, n=6; FIG. 2B. The source says: Adenosine is a neuroprotective by-product of cellular metabolism that accumulates and is released from the brain during traumatic events (Dunwiddie and Masino, 2001). Under nonpathologic conditions, adenosine functions as a bioenergetic network regulator (Boison et al., 2011), and as a neuromodulator with key roles in sleep, thermoregulation and hibernation (Drew and Jinka, 2012) via a family of G protein-coupled receptors (GPCR). Torpor onset in the arctic ground squirrel (AGS) is regulated within the CNS by A1AR signaling and depends on a seasonal change in sensitivity to agonists (Jinka et al., 2011). […] Moreover, CHA-induced torpor is similar to spontaneous torpor with regard to the magnitude and temporal profile of metabolic suppression and Tb decline. A seasonally regulated decrease in Tb during rest in euthermic (non-hibernating) AGS predicts onset of torpor and an increased hypothermic response to CHA. Thus, Tb in animals at rest is a biomarker of enhanced sensitivity to A1AR signaling (FIG. 2). This relationship between Tb and sensitivity to CHA is observed in rats as well as in AGS as disclosed herein.
Spontaneous torpor is indicated by abrupt decreases in Tb,sc below about 30° C.

For data set [7], the system named is rats subjected to 8 min of asphyxial cardiac arrest. In words: Therapeutic hypothermia in rats subjected to 8 min asphyxial cardiac arrest. Format: in vivo, rat. Here is the method: Rats aged 68-75 days were subjected to 8 min of asphyxial cardiac arrest and animals that were resuscitated within 120 sec and met additional inclusion criteria 60 min after ROSC (Table 1) were randomly allocated to a therapeutic hypothermia (TH) or a normothermic control (NC) group using a computer-generated randomization schedule without knowledge of outcome. Treatment commenced 70 min after restoration of spontaneous circulation (ROSC).
Animals assigned to the TH group were moved to 16° C. and CHA and 8-SPT delivered as described above for Drug delivery via sequential IP injections. Animals assigned to the NC group were moved to a neonatal incubator set to 29° C. and vehicles (PB and saline) delivered as described above for the control group. At the end of 24 hr the rats were moved to and housed an ambient temperature of 20° C. for 7 days until they were euthanized for tissue collection. Body temperature was monitored prior to each injection throughout treatment and daily thereafter using sc IPTT-300 transponders (BioMedic Data Systems, Inc. Seaford, Del.).
ACA was induced as described by Dave et al., 2006. Animals were anesthetized with 5% isofluorane and a 30:70 mixture of O2 and N2O followed by endotracheal intubation and mechanical ventilation. The femoral vein and artery were cannulated for continuous blood pressure monitoring and blood gas analysis. ECG leads were attached to the limbs. Physiological variables, including but not limited to PaCO2, PaO2, and pH were maintained within normal limits by adjusting respiratory rate and volume. MABP and ECG were monitored continuously. Temporalis muscle and rectal temperatures were maintained at 36.5-37.5° C. by heating lamps and Omega (Stamford, Conn.) T-CSC32 temperature controllers. To induce cardiac arrest, vecuronium (1 mg/kg) was injected I.V. and apnea was induced by disconnecting the ventilator from the endotracheal tube. Resuscitation was initiated by reconnecting the ventilator, administering epinephrine (0.01 mg/kg, I.V.) and sodium bicarbonate (1 mg/kg, I.V.) mechanically ventilating with 100% O2 at a rate of 80 bpm and manual chest compressions until MABP reached 50 mm Hg and was maintained by a spontaneously beating heart for more than 10 sec. After 10 min of ROSC, ventilation was decreased to 60 bpm and O2 lowered to 30%. Naïve animals were subjected to similar surgical procedures except that the ventilator was not disconnected from the endotracheal tube.
Post-operative (post-op) rats subjected to 6 min and 8 min CA and not assigned to hypothermia experiments were placed in a neonatal incubator overnight with only water provided (0.9% saline, I.P. based off […] body weight was injected at the end of surgery to prevent dehydration). After 8-16 hr, animals were fed, weighed, cleaned, and had neurological deficit scores (NDS) analyzed daily for 7 days beginning 2 hr post ROSC. Rats were fed a 50:50 mix of rodent chow and sugar mixed with water to create a soup, which was placed into small petri dishes to allow animals to self-feed. Animals that were unable to feed themselves were assisted via spoon-feeding. Spoon-feeding involved using a gavage needle and a 3 cc syringe to slowly and carefully inject the liquid soup material into the rat's mouth allowing their “swallow-reflex” to determine how much food was given.
Behavioral Neurological Deficit Scores (NDS) were taken daily for 7 days after asphyxial cardiac arrest to assess injury. The total NDS consists of five components: consciousness and respiration, cranial nerve function, motor function, sensory function, and coordination (leg/tail movement, cleaning, depth perception, and righting reflex) as previously described in Katz et al., 1995). The NDS range is a scale between 0 (normal function) to 100 (brain dead). […]

The conditions of data set [8]: rabbit; Liu G S et al., 1991; cited from earlier work.
The mark [9] stands for this setting: 8-SPT 25 mg/kg i.p. in CHA treated animals, Ta 25° C.

Turning to `OC[C@H]1O[C@@H](n2cnc3c(NC4CCCCC4)ncnc32)[C@H](O)[C@@H]1O` [CHA, N^6-cyclohexyladenosine], in data set [1] (dietary restriction (every other day feeding) vs ad libitum, CHA 0.5 mg/kg with 8-SPT), the “magnitude of cooling at a given dose” value is “enhanced following DR”. For the same compound, the “Tb in conscious rats” value in data set [1] (repeated co-administration: 8-SPT 2.5 mg/kg i.p. 15 min prior to CHA 0.5 mg/kg i.p., 4 hr intervals, Ta 16° C.) is given as “immediate decrease in Tb”. The half-life in data set [2] was around 4 h. The “Tb on repeated injection” value in data set [3] (CHA 1.0 mg/kg i.p. at 4 hr intervals, 6 injections, 8-SPT 15 min prior, Ta 16° C.) is “steady minimum in Tb after the fourth injection”. Besides, in data set [3] (CHA 1.0 mg/kg i.p., 8-SPT 25 mg/kg i.p. 15 min prior, Ta 16° C., FIG. 4A), the “Tb decreased to” value was determined as 33 °C. The “time to decrease of Tb to 33° C.” value in data set [3] (CHA 1.0 mg/kg i.p., 8-SPT 15 min prior, Ta 16° C.) was at most 1 h. Moreover, the “heart rate at 24 hr” value in data set [3] (CHA-treated rats, 4 hr after last 8-SPT and CHA injection, FIG. 4C) was “slight, but statistically significant bradycardia”. Besides, the “time to rewarm after moving to Ta of 20° C.” value in data set [3] (after 6 injections of CHA and 8-SPT, no other means of rewarming) is at most 3.5 h. Further, the “adverse events after rewarming” value in data set [3] (after 24 hr CHA and 8-SPT at Ta 16° C.) is “without evidence of significant adverse events”. In data set [3] (after rewarming, FIG. 4C), the “heart rate 5.5 hr after the last CHA injection” value is on record as “remained significantly elevated”. The “neurological deficit scores (NDS)” value in data set [3] (during hypothermia, FIG. 4B) was “increased”. In addition, the sO2 result in data set [4] (continuous CHA at Ta 16° C. and 25° C.) is recorded as “no effect”. Further, the heart rate result in data set [4] (continuous CHA at Ta 16° C. and 25° C. vs CD vehicle, p<0.01) is “decreased”. Further, the “mean minimum Tb” value came out at 29.3±0.3 °C in data set [4] (Ta 16° C.) and 35.6±0.12 °C in data set [4] (Ta 25° C.). The “torpor induction in summer” value in data set [5] (summer) is reported as “not in summer”. Also, the “torpor induction in winter” value in data set [5] (winter) is recorded as “induces torpor”. In addition, the “maximal response to a low (non-torpor inducing) dose” value in data set [6] is listed as “greater when tested during a trough than when tested during a peak”. Besides, the “number of healthy neurons per mm of CA1 (mean±SEM)” value in data set [7] (TH group n=3, 8 days after 8 min asphyxial CA, naïve 180.8±12.3, normothermic control 47.8) turned out to be 135.5±4.6. Besides, the “survival to 8 days” value in data set [7] (TH group, n=3, 1 of 3 survived in normothermic control group) came out at 3 rats. The “individual Tb minima” value in data set [7] (TH group, n=3) was found to be 29.7±0.3 °C. Moreover, the “time to Tb of 31.0 to 31.6° C. after CHA injection” value in data set [7] (TH group, n=3) is at most 3 h. Moreover, the “time to rewarm without intervention after transfer to Ta of 20° C.” value in data set [7] (TH group, transfer 4 hr after last CHA injection) is at most 5 h. The “time at which Tb reached a minimum after ROSC” value in data set [7] (cooling initiated 70 min post ROSC) was 12 h. In addition, the post-operative recovery entry in data set [7] (hypothermia group) was “recovered without need for post-op care”.

`Cn1c(=O)c2[nH]c(-c3ccc(S(=O)(=O)O)cc3)nc2n(C)c1=O` [8-SPT, 8-p-sulfophenyltheophylline]: the “influence on Tb” value in data set [4] (8-SPT 25 mg/kg i.p. in CHA treated animals, Ta 16° C.) is “no influence on Tb”. Moreover, in data set [4] (setting [9]), the heart rate entry is given as “small, but significant increase” and the “influence on Tb” value was “no influence on Tb”. Besides, the “increase in heart rate” value in data set [4] (8-SPT 25 mg/kg i.p. in animals treated with continuous CHA, Ta 16° C.) amounted to 2 fold. For the same compound, in data set [4] (8-SPT in control (CD treated) animals, Ta 16° C., saline vehicle did the same), the “heart rate in control animals” value was “increased heart rate”. Also, the “heart rate or Tb in control animals” value in data set [4] (8-SPT in control (CD treated) animals, Ta 25° C.) was “no effect on heart rate or Tb”. The “time for effects of 8-SPT to subside” value in data set [4] (after 8-SPT 25 mg/kg i.p., Ta 16° C.) is at most 60 min. In addition, the half-life in data set [8] was 0.75 h.

Values taken from patent US10092591B2, “Methods and compositions for the treatment of ischemic injury to tissue using therapeutic hypothermia” (University of Alaska Fairbanks, priority 2014, dated 2018).
